This note sets out measurements from ChEMBL document CHEMBL1138443, “Carbonic anhydrase inhibitors. Cloning, characterization, and inhibition studies of a new beta-carbonic anhydrase from Mycobacterium tuberculosis” (J Med Chem, 2009).

The target in this assay is T1, Beta-carbonic anhydrase 1 (Mycobacterium tuberculosis, UniProt P9WPJ7).
T1 sequence (P9WPJ7 whole entry): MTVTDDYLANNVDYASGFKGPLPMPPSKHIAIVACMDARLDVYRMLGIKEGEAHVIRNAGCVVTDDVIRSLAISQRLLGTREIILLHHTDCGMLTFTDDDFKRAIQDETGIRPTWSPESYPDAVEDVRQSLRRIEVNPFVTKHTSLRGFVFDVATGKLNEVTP

The Ki is a dissociation constant, usually derived from enzyme kinetics or from competition with a known ligand. Read a low Ki as higher affinity.

As for `CC(=O)/N=c1/sc(S(N)(=O)=O)nn1C` [METHAZOLAMIDE], affinity was put at a Ki of 0.781 µM. That is a sub-micromolar value.
